This is an account of results in patent US8679530B2 (Your Energy Systems, LLC, priority 2004, dated 2014).

Experiment [1] can be described thus: Case report Example 5: blood pressure in diabetic hypertensive. Conditions: lisinopril 20 mg twice a day, over 3 days; before 188/92. It is filed as in vivo, human. On the procedure:
The patient with diabetes requiring insulin therapy also has a long history of elevated blood pressure. The blood pressure was previously controlled using lisinopril 20 mg. daily. […] The dose of lisinopril was lowered to 20 mg once a day.

The conditions of experiment [2]: intravenous administration; cited from earlier work.

`NCCCC[C@H](N[C@@H](CCc1ccccc1)C(=O)O)C(=O)N1CCC[C@H]1C(=O)O` [lisinopril]: the blood pressure in experiment [1] is given as 145/92.
For `N[C@@H](CCC(=O)N[C@@H](CS)C(=O)NCC(=O)O)C(=O)O` [reduced glutathione, gamma-glutamyl-cysteinyl-glycine], the “blood flow in peripheral vascular disease” value in experiment [2] is “benefit in improving blood flow”.
